Series [1] deals with human lymphocytes. Also noted: method as in Stadnicki et al. [1979]. The settings on record: ref Stadnicki et al. [1979]; cited from earlier work.
Series [2] relates to bone marrow and liver. Also on record: method as in Sargent et al. [1992]. The conditions noted are these: ref Sargent et al. [1992]; cited from earlier work.
Series [3] deals with HEK293CYP2A6 cells. The experiment in a line: Light microscopic evaluation of HEK293CYP2A6 cells. It counts as cell-based, human. The conditions noted are these: 24 h of incubation (data not shown).
Series [4] deals with HEK293CYP2A6 cells. The experiment in a line: Neutral comet assay in HEK293CYP2A6 cells. It counts as cell-based, human. The conditions noted are these: for Comet assay: percentage of tail DNA / DNA damage above background: 20 or 30 µM. The method, then: For neutral comet assays, transgenic CYP2A6 and transgenic CYP2C9 cells were treated with parent PCBs for 5 h. After treatments, 50 μL of a suspension of 10^5 cells/mL were washed in PBS and resuspended in 500 μL of preheated agarose (37 °C). The agarose/cell suspensions were applied to microscopic slides and left for 30 min at 4 °C to allow gel polymerization. After cell lysis using a commercial buffer (Trevigen, Gaithersburg, USA), single-cell gel electrophoresis was performed at 1 V/cm for 1 h. After precipitation of the DNA with ammonium acetate, samples were fixed in 70% ethanol for 30 min and dried. To visualize dsDNA, SYBR™ Green I Nucleic Acid Gel Stain (Invitrogen, Carlsbad, USA) was used. Pictures of at least 50 cells/section were taken using a fluorescence microscope (DMRX, Leica: 450–490 nm BP- filter, 40 × magnification). The extent of the genotoxic effect of PCBs was calculated using the ImageJ-based OpenComet software.

Series [5] can be described thus: PCB concentrations in plasma of HELPcB participants (2010). It counts as in vivo, human. The settings on record: human, plasma, other: occupational exposure, sample of 2010.
In series [6] the test system is HEK293CYP2A6 cells. Kind of series: MTT assay in HEK293CYP2A6 cells. The conditions noted are these: for Concentration from which the fraction of cell viability affected (FA) increased: HEK293CYP2A6 cells, MTT; for IC50: Homo sapiens, HEK293CYP2A6 cell line, read-out: IC50 (MTT, cell viability / metabolic activity); for PCB concentration at which the difference between HEK293 cells and CYP2A6 transgenic cells becomes statistically significant: MTT assay, Fig. 2. It counts as cell-based, human. The method, then: For the determination of metabolic activity, HEK293 cells as well as transgenic HEK293CYP2A6 and HEK293CYP2C9 cells were plated into 96-well flat-bottomed microtiter plates (Becton Dickinson, Heidelberg, Germany) at a density of 1 × 10^5 cells in 100 μL of media. Cells were allowed to grow for 24 h geneticin free before PCBs were added. Controls included cells grown in medium with and without ethanol (maximal 1% (vol/vol)) added. After 48 h, the ability of remaining viable cells to transform 3-(4,5-dimethylthiazol-2-yl)-2,5-diphenyltetrazolium bromide (MTT) into formazan was assessed (MTT Cell Proliferation Assay, ATCC, Manassas, USA). The absorbance of the samples was measured on a Microplate Reader (FLUOstar, BMG Labtech, Ortenberg, Germany) at 450 nm.
Background: Tetrazolium assays rely on reduction of a dye to a coloured formazan, in cell work by metabolically active cells.

Series [7] has as its system HEK293CYP2A6 cells. Kind of series: Micronucleus assay in HEK293CYP2A6 cells. It counts as cell-based, human. The conditions noted are these: HEK293CYP2A6 cells; 20 and 30 µM, 24 h. The method, then:
(§1) Transgenic HEK293CYP2A6 and HEK293CYP2C9 cells were cultured in T25 flasks, with a seeding density of 1 × 10^6 cells per flask at 37 °C with 5% CO2. Cells were allowed to grow for 24 h geneticin free before PCBs were added (20 µM or 30 µM). Controls included cells grown in the presence of 1% ethanol (vol/vol) (negative control) or […] 4-nitroquinoline 1-oxide (positive control). Following further incubation for 24 h, cells were synchronized by adding Cytochalasin B. Subsequently, cells were harvested by trypsinization, centrifuged (2,000g, 10 min), and washed with DPBS (Dulbecco’s PBS). For hypotonic shock, 4 °C cold potassium chloride solution was added to the cells under agitation. Cells were completely resuspended and incubated at room temperature for 5 min. After centrifugation (2,500g, 10 min), the supernatant was discarded. To fix the cells, they were treated with a methanol/acetic acid solution (− 20 °C), with a minimum incubation time of 15 min at room temperature. Following centrifugation (2,500g, 10 min), the supernatant was discarded, and the fixation process was repeated at least three times. Finally, the samples were dissolved in 1 mL of fixative solution and incubated overnight at 4 °C. For analysis, two to three drops from each sample were placed on a glass slide, with intermittent heating of the slide. Subsequently, the cells were visualized with acridine orange, and using a fluorescence microscope (Leica DM6000B, Filter I3 450–490 nm), 2,000 cells per sample were counted.

For series [8], the system named is Salmonella typhimurium strains. Also on record: method as in Wyndham et al. [1976]. The conditions noted are these: PCB52 and its primary metabolites; ref Wyndham et al. [1976]; cited from earlier work.
The subject of series [9] is mouse fibroblasts. Also noted: method as in Stadnicki et al. [1979]. The conditions noted are these: ref Stadnicki et al. [1979]; cited from earlier work.
For series [10], the system named is HEK293CYP2C9 cells. Kind of series: Micronucleus assay in HEK293CYP2C9 cells. It counts as cell-based, human. The conditions noted are these: 20 and 30 µM, 24 h. The procedure: as §1
In series [11] the test system is human lymphocytes. Also noted: method as in Sargent et al. [1989]. The conditions noted are these: ref Sargent et al. [1989]; cited from earlier work.
Series [12] addresses T1, CYP2A6 (Homo sapiens, UniProt P11509).
T1 sequence (P11509 1-494): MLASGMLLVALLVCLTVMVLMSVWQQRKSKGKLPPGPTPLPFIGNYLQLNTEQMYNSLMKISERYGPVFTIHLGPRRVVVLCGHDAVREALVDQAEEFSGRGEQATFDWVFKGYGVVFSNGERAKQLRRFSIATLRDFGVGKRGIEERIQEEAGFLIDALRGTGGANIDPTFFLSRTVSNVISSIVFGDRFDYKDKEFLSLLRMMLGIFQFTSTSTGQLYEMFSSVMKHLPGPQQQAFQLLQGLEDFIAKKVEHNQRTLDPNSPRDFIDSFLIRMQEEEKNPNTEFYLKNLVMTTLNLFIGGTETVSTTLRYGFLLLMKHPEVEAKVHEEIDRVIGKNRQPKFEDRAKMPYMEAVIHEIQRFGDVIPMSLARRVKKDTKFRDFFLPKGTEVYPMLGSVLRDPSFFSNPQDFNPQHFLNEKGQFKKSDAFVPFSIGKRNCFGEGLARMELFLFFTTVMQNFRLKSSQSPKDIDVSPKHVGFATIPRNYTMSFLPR
The experiment in a line: Urinary 1,7-dimethyluric acid/paraxanthine metabolic ratio after caffeine (CYP2A6 phenotyping). The conditions noted are these: urine, 0–360 min after 50 mg caffeine oral; ten PCB-exposed subjects.
From the text: Ten subjects with prior occupational exposure to PCBs and ten controls were included into a clinical CYP phenotyping cocktail study at the Institute for Occupational, Social and Environmental Medicine, University Hospital RWTH Aachen. PCB-exposed participants were reinvited from the HELPcB (Health Effects in High-Level Exposure to PCB) medical surveillance program. […] Subjects were allowed to consume non-caffeinated beverages and received a meal 3 following the administration of the drug cocktail. Concentrations of the test compounds and their CYP-mediated metabolites were measured using LC–MS, with urine sampling over 24 h with 5 time points at 1,2,4,6, and 24 h after drug cocktail intake. […] Urine samples were weighed during sampling.
20 µL urine or calibrators and quality controls in Sigmatrix urine diluent (SAE0074-1L, Sigma-Aldrich) were protein precipitated with 80 µL methanol including 1000 ng/mL internal standards caffeine-d9, paraxanthine-d6, and 1,7-dimethyluric acid-d3. Samples were briefly vortexed and centrifuged for 5 min at 17,000g and 4 °C. […] Caffeine and paraxanthine were detected in positive ion mode and 1,7-dimethyluric acid in negative ion mode. […] The metabolic ratio for 1,7-dimethyluric acid/paraxanthine was calculated based on the measured urine concentrations. […]

Series [13] concerns fish cells. Also on record: method as in Marabini et al. [2011]. The conditions noted are these: ref Marabini et al. [2011]; cited from earlier work.
The test system of series [14] is human lung fibroblast. Also noted: method as in Hashmi et al. [2015]. The conditions noted are these: higher concentrations compared to lower concentrations; ref Hashmi et al. [2015]; cited from earlier work.

We go through three molecules from PMC11489226 (Archives of Toxicology, 2024).

For the molecule `Clc1ccc(Cl)c(-c2cc(Cl)ccc2Cl)c1` [PCB52, 2,2′,5,5′-tetrachlorobiphenyl], the DNA strand breaks entry in series [1] and in series [9] was “positive or weakly positive” throughout. Also, in [2], the “Chromosomal aberrations in vivo” value is “absence of chromosomal aberrations”. The “Light microscopic evaluation: type of effect” value in series [3] is “cytostatic effects (proliferation arrest)”. Moreover, the “DNA damage classified according to the comet scale (percentage of tail DNA)” value in series [4] (20 µM) and in series [4] (30 µM) was “low damage” in each case. Moreover, the “Comet assay: percentage of tail DNA / DNA damage above background” value in [4] is given as “not”. Further, the concentration at 2010 calendar year in [5] (HELPcB participant AD) worked out at 0.026 ng/mL; in series [5] (HELPcB participant AE) it was 0.005 ng/mL; in series [5] (HELPcB participant eight), 0.005 ng/mL; in series [5] (HELPcB participant five), 0.031 ng/mL; in [5] (HELPcB participant four), 0.005 ng/mL; in series [5] (HELPcB participant seven) it was 0.021 ng/mL. The concentration at 2010 calendar year in series [5] (HELPcB participant six) is 0.043 ng/mL; in [5] (HELPcB participant three) it was 0.04 ng/mL. The concentration at 2010 calendar year of sampling was determined as 0.348 ng/mL in series [5] (HELPcB participant one) and 0.005 ng/mL in series [5] (HELPcB participant two). Also, the “Concentration from which the fraction of cell viability affected (FA) increased” value in series [6] is 20 µM. Moreover, the IC50 in series [6] turned out to be 26.2 µM. Also, the “PCB concentration at which the difference between HEK293 cells and CYP2A6 transgenic cells becomes statistically significant” value in [6] was 40 µM. In addition, the Percentages of micronuclei result in series [7] is “diminished effect”; in [10], “indistinguishable effects”. Also, the Mutagenic activity entry in [8] is reported as “did not exhibit mutagenic activity”. The Sister chromatid exchange result in series [11] is recorded as “negative”.
For `Cn1c(=O)[nH]c2[nH]c(=O)n(C)c2c1=O` [1,7-DMU, 1,7-dimethyluric acid], the “Logarithmically transformed metabolic ratio of 1,7-DMU and paraxanthine, median” value in series [12] came out at 0.4.
Take `Clc1ccc(Cl)c(-c2cc(Cl)c(Cl)cc2Cl)c1` [PCB101, 2,2′,4,5,5′-pentachlorobiphenyl]: the DNA strand breaks result in series [13] is given as “induce”. For the same molecule, in series [13], the Micronucleus formation result is “induce”. The “Light microscopic evaluation: type of effect” value in series [3] is given as “cytostatic effects (proliferation arrest)”. Moreover, the “DNA damage classified according to the comet scale (percentage of tail DNA)” value in [4] (20 µM) is reported as “high damage”; in series [4] (30 µM) it was “moderate damage”. For the same molecule, the “Comet assay: percentage of tail DNA / DNA damage above background” value in [4] is on record as “DNA damage was also seen”. Also, the “Genotoxicity compared with etoposide (comet assay)” value in series [4] (etoposide 10 µm positive control) is recorded as “more potent than of etoposide”. Further, the concentration at 2010 calendar year is 0.073 ng/mL in [5] (HELPcB participant AD); 0.005 ng/mL in [5] (HELPcB participant AE); 0.005 ng/mL in series [5] (HELPcB participant eight); 0.111 ng/mL in series [5] (HELPcB participant five); 0.005 ng/mL in [5] (HELPcB participant four); 0.03 ng/mL in series [5] (HELPcB participant seven). For the same molecule, the concentration at 2010 calendar year in [5] (HELPcB participant six) was 0.227 ng/mL; in series [5] (HELPcB participant three), 0.078 ng/mL. Also, the figures for the concentration at 2010 calendar year of sampling in [5] (HELPcB participant one) and in series [5] (HELPcB participant two) were 0.519 ng/mL and 0.005 ng/mL, respectively. Further, the “Concentration from which the fraction of cell viability affected (FA) increased” value in series [6] stood at 20 µM. Besides, the IC50 in series [6] came to 34.8 µM. The “PCB concentration at which the difference between HEK293 cells and CYP2A6 transgenic cells becomes statistically significant” value in [6] amounted to 60 µM. Further, the Percentages of micronuclei entry in series [7] is “approximately threefold elevated”; in [10], “inactive”. In series [14], the Genotoxicity result is recorded as “increased significantly”.
